From US20180369186A1, “METHOD FOR MODULATING AUTOPHAGY AND APPLICATIONS THEREOF” (JAWAHARLAL NEHRU CENTRE FOR ADVANCED SCIENTIFIC RESEARCH, priority 2015, published 2018)

Tests used:
[1] = system: α-synuclein-EGFP; assay: α-synuclein-EGFP degradation assay in yeast; format: cell-based, S. cerevisiae; conditions: 50 μM
Description: Subsequent degradation of α-synuclein-EGFP levels are analyzed using immunoblotting (FIG. 9A).
Yeast cultures after respective treatments are washed, mounted on agarose (2%) pad and imaged. Images are acquired using DeltaVision Elite widefield microscope (API, GE) with following filters: DAPI (390/18 and 435/48), FITC (490/20 and 529/38), TRITC (542/27 and 594/45) and Cy5 (632/22 and 676/34). Images are processed using DV SoftWoRX software. Autophagosome (yellow) and autolysosome (red) are counted using Cell Counter plug-in in imager software (NIH) and graphically represented as fold difference versus untreated (FIGS. 4A, B, C and D).
After inducing α-synuclein-EGFP aggregates in the corresponding yeast strains driven by galactose promoter, the protein expression is turned off by adding dextrose in the medium. Then, α-synuclein-EGFP aggregates degradation by XCT 790 are assessed by collecting cells treated with and without XCT 790 (50 μM) for 0 and 24 h. Subsequently, the protein levels are analyzed using immunoblotting.
The appropriate yeast strains (A600=3) are mixed in trichloroacetic acid (12.5%) and then stored at −80° C. Then, the samples are thawed on ice, centrifuged (16000×g, 15 min) and the pellets are washed twice with ice-cold acetone (80%). Pellets are air dried, resuspended in lysis solution (0.1 N NaOH and 1% SDS) and Laemmli buffer and boiled for 15 min.
After respective treatments, the yeast cultures were washed, seeded on agarose (2%) pad and then imaged.

[2] = system: HeLa cells (autophagosomes and autolysosomes); assay: Tandem RFP-GFP-LC3B (traffic light) assay in HeLa cells; format: cell-based, human
Description: Transfection is done on a 60 mm dish with HeLa cells at 60-70% confluency. Cells were transfected with tandem RFP-GFP-MAP1LC3B construct (Addgene plasmid #21074) using 5 μl of Lipofectamine 2000 (11668-019, Invitrogen) and 2.5 μg of DNA (2:1 ratio) diluted in 100 μl of OPTI-MEM (31985-070, Invitrogen) separately. 72 hours after transfection cells are either left untreated or treatment with various concentrations of Bay11-7082 ZPCK is done for 2 hours. Starvation is induced by treating cells with Earle's balanced salt solution (EBBS). After treatment, cells are fixed in 4% paraformaldehyde and permeabilized using 0.25% Triton X-100, The coverslip is mounted with […] antifade reagent (H-1000, Vector laboratories). Imaging for HeLa cells is carried out using Delta vision microscope (Olympus 60×/1.4, Plan ApoN, excitation and emission filter Cy5, FITC and TRITC, polychroic Quad).
For tandem RFP-EGFP-LC3 assay, sub-confluent cells are seeded in 60 mm dishes, transfected with ptf LC3 construct and allowed to express for 24 h. Later, cells are trypsinized, reseeded (10^5 cells) and allowed to attach on cover slips in a 12 well plate.
For mammalian cell microscopy, after 2 h of treatment, coverslips are fixed using 4% paraformaldehyde (PFA) (Sigma) and permeabilized using Triton X-100 (0.2%, HiMedia). Coverslips are mounted using antifade, Vectashield (Vector laboratories). For antibody staining, coverslips are blocked in 5% BSA for 1 h, incubated in primary antibody overnight and subsequent probing with fluorescent conjugated antibody. Coverslips are mounted using antifade, Vectashield (Vector laboratories).
Images are acquired using DeltaVisionElitewidefield microscope (API, GE) with following filters: DAPI (390/18 and 435/48), FITC (490/20 and 529/38), TRITC (542/27 and 594/45) and Cy5 (632/22 and 676/34). Images are processed using DV SoftWoRX software. Autophagosome (yellow) and autolysosome (red) are counted using Cell Counter plug-in in ImageJ software (NIH) and graphically represented as fold difference versus untreated (FIG. 3E).
Sub-confluent HeLa and/or SH-SY5Y cells are seeded into 60 mm cell culture dishes, then transfected with ptf LC3 construct and/or siRNA and allowed to express for 48 h. Cells are trypsinized, seeded again on poly-D-lysine coated cover slips in a 12 or 24 well plates and allowed to attach. After appropriate treatments, the coverslips containing cells are processed for imaging. For immunofluorescent antibody staining, the cover slips are incubated in primary antibody at 4° C. for overnight followed by secondary antibody incubation at room temperature.
For imaging the mammalian cells, after appropriate treatments, coverslips containing cells are fixed using 4% paraformaldehyde (PFA) (Sigma) and then permeabilized using Triton X-100 (0.2%, HiMedia). On slide, coverslips are mounted using antifade, Vectashield mounting medium (Vector laboratories). For antibody staining, coverslips are blocked using 5% BSA for 1 h at room temperature, then incubated with primary antibody at 4° C., overnight and then subsequently probed with corresponding fluorescent dye conjugated secondary antibody.

[3] = system: DAergic neurons in SNpc; assay: MPTP mouse model: LC3 and A11 puncta in DAergic neurons of SNpc; format: in vivo
Description: The sequential immunolabeling procedure is used to co-label the TH and LC3 and/or A11. First, the midbrain sections are equilibrated with 0.1 M PBS (pH 7.4) for 10 min and then incubated with buffered bovine serum albumin (3%) for 4 h to block non-specific epitopes. Then, the sections are incubated in rabbit anti-LC3 antibody (1:1000) and/or anti-oligomer antibody (A11, 1:1000) for 72 h at 4° C. After subsequent washes, the sections are incubated in corresponding fluorescent secondary antibody (1:200) at 4° C., overnight.
Co-labeling with TH is performed on the same sections using rabbit anti-TH antibody (1:500), followed by secondary labeling. PBST (0.01 M, pH 7.4) is used as both working and washing buffer. Sections are then mounted using Vectashield hardset mounting medium.

[4] = system: GFP-Atg8; assay: GFP-Atg8 processing assay (general autophagy); format: cell-based, Saccharomyces cerevisiae
Description: Saccharomyces cerevisiae strain containing the GFP-Atg8 (pRS 316 vector backbone) plasmid is grown in synthetic complete medium lacking uracil (SC-URA) under appropriate conditions (30° C. 250 rpm). From this, a secondary culture is inoculated at A600 nm=0.2 and grown as above until A600 nm reached ˜0.65. The cultures are transferred to SD-N (nitrogen starvation) medium at A600 nm=3, separately with and without the compounds, and samples are collected at different time intervals. Sample preparation is done by the TCA precipitation method and immunoblotting is performed using standard methods.
Yeast strains (A600=3) are resuspended in trichloroacetic acid (12.5%) and stored at −80° C. for at least half an hour. Samples are thawed on ice, centrifuged (16000×g, 10 min) and pellet is washed twice with ice-cold acetone (80%). Pellets are air dried, resuspended in lysis (1% SDS and 0.1 N NaOH) solution and Laemmii buffer and boiled for 10 min.

[5] = HeLa, ERRα Flag transfected 48 h, 5 μM, 2 h
[6] = 5 mg/kg, co-administered with MPTP
[7] = starvation, 4 h and 6 h, 50 μM, versus untreated
[8] = HeLa, 2 h, 2.5 μM Bay11, 25 μM ZPCK

COc1cc(C=C(C#N)C(=O)Nc2nnc(C(F)(F)F)s2)ccc1OCc1ccc(C(F)(F)F)cc1C(F)(F)F [XCT 790, 3-[4-(2,4-Bis-trifluoromethylbenzyloxy)-3-methoxyphenyl]-2-cyano-N-(5-trifluoromethyl-1,3,4-thiadiazol-2-yl)acrylamide]
clearance of α-synuclein-EGFP in wild-type strain ([1]; 24 h, untreated vs treated): ~2.5 fold
vacuolar free EGFP (vacuolar degradation of α-synuclein-EGFP) ([1]; microscopy, WT α-synuclein-EGFP, untreated vs treated): ~14 fold
autolysosome numbers, fold vs control ([2]; HeLa, 5 μM, 2 h): ~2 fold
autophagosomes, fold vs control ([2]; HeLa, 5 μM, 2 h): ~5 fold
less autolysosomes in ERRα over expressed cells, vs untreated [2, 5]: ~2 fold
more autophagosomes in ERRα over expressed cells, vs untreated [2, 5]: ~2 fold
LC3 puncta per neuron, compound only vs placebo/vehicle ([3]; 5 mg/kg of body weight, compound only cohort): ~3 fold
aggregates in compound only cohort vs vehicle ([3]; 5 mg/kg, XCT 790 only): comparable to that of vehicle cohort
LC3 puncta per cell, vehicle vs MPTP+Co [3, 6]: ~3 fold
reduction in A11 positive toxic aggregates, MPTP vs MPTP+Co [3, 6]: ~6 fold

O=C1Nc2cc(Br)ccc2/C1=C1/Nc2ccccc2/C1=N\O [6-Bio, (2′Z,3′E)-6-Bromoindirubin-3′-oxime]
autophagy induction / flux, growth condition ([4]; growth condition, 6 h, 50 μM): dramatically induces autophagy
increase in autophagic flux, growth condition ([4]; growth condition, 50 μM, versus untreated): approximately 3 fold
increase in autophagic flux, starvation condition [4, 7]: 2 fold
increase in autophagy induction, starvation condition [4, 7]: 2 fold
α-synuclein-EGFP clearance in autophagy mutant atg1Δ ([1]; atg1Δ): not in an autophagy mutant
α-synuclein-EGFP levels in wild type cells ([1]; non-starvation and starvation, 0, 6, 12 and 24 h): time-dependent and significant decrease
fusion between autophagosomes and lysosomes at 16° C. ([2]; HeLa, 16° C. (endocytosis reduced), control vs treated): ~8 fold
fusion between autophagosomes and lysosomes at 37° C. ([2]; HeLa, 37° C., control vs treated): ~10 fold
autolysosomes in GSK3B silenced cells vs only treated cells ([2]; shRNA GSK3B silenced cells): significantly reduced
LC3B puncta per neuron, MPTP vs MPTP+Co ([3]; 5 mg/kg, co administered with MPTP): ~2,5 fold
reduction in A11 positive toxic aggregates, MPTP vs MPTP+Co [3, 6]: ~7 fold
p-GSK3B signals in DAergic neurons ([3]; 6-Bio only and MPTP+Co cohorts): Reduced p-GSK3B signals

Cc1ccc(S(=O)(=O)/C=C/C#N)cc1 [Bay11, 3-[(4-methylphenyl)sulfonyl]-(2E)-propenenitrile]
GFP-Atg8 labelled autophagosomes, fluorescence microscopy ([4]; starvation): accumulation of punctate structures outside the vacuole
release of GFP from GFP-Atg8 (general autophagy) ([4]; starvation): slower release of GFP
number of autolysosomes (mRFP+/GFP− puncta) [2, 8]: decreased
number of autophagosomes (mRFP+/GFP+ puncta) [2, 8]: decreased the number of autophagosomes
step of action relative to Bafilomycin A1 (BFA) ([2]; HeLa, with Bafilomycin A1 (400 nM)): step prior to BFA action
